# Assays:
# [1] = test system: light-activated gene transcription plasmid pDAWN; assay: Induction of mCherry expression by SCL and pDAWN in E. coli; type: cell-based
# Description: (§1) For starting cultures, E. coli BL21 (DE) cells transformed with pDAWN were grown overnight (225 rpm, 37° C.) in LB medium (pH 7.0; Sigma) supplemented with 50 μg/ml kanamycin (Sigma). Cells were then diluted 100-fold in fresh LB medium (pH 8.0) and growth was allowed to reach OD600˜0.4 (7.3×10^7 CFU/ml) under non-inducing conditions (i.e. in the dark). For US experiments, 250 ml of these cultures were centrifuged (4700 rpm, 5 min) and resuspended in 200 ml M9 minimal medium (1×M9 salts, 2 mM MgSO4, 0.1 mM CaCl2, 0.4% glucose, buffered with 0.05 M Tris, pH 9.0). Each culture was treated with US for 3 h. After stimulation, aliquots (50 ml) were centrifuged, resuspended (in M9 minimal media) and incubated in 96-well plates overnight under non-inducing conditions (dark) to allow mCherry maturation.
# M38K^Opto-mFGFR1 cells = assay: EMT-like morphology changes (aspect ratio) in M38K Opto-mFGFR1 cells in response to luminol SCL; type: cell-based
# Description: After additional 24 h, cells were photographed on the Nikon Ti300 microscope.
# E. coli = conditions: treatment with US and luminol for 3 h (20 mM luminol, pH 9), M9 minimal media
# Description: as §1
# OD600 and mCherry fluorescence emission spectra (λex=543±10 nm, λem=575 to 695 nm in 10 nm increments) were measured with a (Biotek Synergy H1) microplate reader in a black 96-well flat-bottom plates (typical volume was 200 μl).
smiles,measurement,setting,value
"COc1ccc(-c2cn3c(=O)c(C)nc-3c[nH]2)cc1.Cl [MCLA, 6-(4-Methoxyphenyl)-2-methyl-3,7-dihydroimidazo[1,2-a]pyrazin-3-one Hydrochloride]",induction of mCherry expression,"[1]; MCLA-catalyzed SCL, pDAWN-V28I, 2 h US stimulation, 2 μM MCLA, pH 7",two
COc1cc(OC)cc(-c2cc3cnc(N)nc3nc2NC(=O)NC(C)(C)C)c1 [PD166866],effect of luminol SCL on cell morphology after pre-treatment with inhibitor,"M38K^Opto-mFGFR1 cells; 10 μM for 1 h before US stimulation (585 kHz, 64% amplitude, 3 h)",abolished
"Nc1cccc2c(=O)[nH][nH]c(=O)c12 [luminol, 5-Amino-2,3-dihydro-1,4-phthalazinedione]",morphological changes in M38K^Opto-mFGFR1 cells,"M38K^Opto-mFGFR1 cells; luminol SCL, two chambers configuration, 20 mM luminol, US 585 kHz, 64% amplitude, 3 h",induced epithelial-mesenchymal transition (EMT)-like morphological changes
same,induction of mCherry production (increase compared to control experiments),[1]; {},~5 fold
same,reduction of E. coli viability indicators (OD600 and CFUs),E. coli,~50%
